Read-outs that look alike come from different tables or passages of the source.
What was measured:
[1] = tested on: SW480; experiment: MTT cell viability assay, SW480; format: cell-based, human; conditions: Homo sapiens; SW480, 48 hrs
Description: (§1) Human cervical cancer cell lines (HeLa, ME-180 and SiHa), brain tumor cell lines (U87MG, U373MG, U87MG EGFRvIII, T98G, A172 and LN229), lymphoid leukemia (MOLT-3, MOLT-4, REH and CEMC-7), myloid leukemia (K562), pancreatic cancer (MIAPaCa-2, AsPC-1, Panc-1 and Panc 10.05), lung cancer (A549) and colon cancer (HCT116 and SW480) cell lines from American Type Culture Collection, Manassas, Va., USA were grown in IMDM or RPMI (cell specific) Medium supplemented with 10% fetal bovine serum and 1% antibiotic-antimycotic. Cells were cultured in 37° C. in an atmosphere of 5% CO2.
(§2) Viability of cancer cell lines after treatment as at the indicated times was determined by MTT assay. Briefly, 10,000 cells were plated in triplicate in 96 well plates and incubated for 24 and 48 hours in complete media in presence of varying dose of mahanine (0-50 μM). 100 ug MTT was added in each well. Incubate the plate for 1-4 hours at 37° C. and humidified 5% CO2 atmosphere. Absorbance was recorded at 550 nm with 96 well plate readers.

[2] = tested on: MIAPaCa-2; experiment: Transmigration assay (EGF-driven); format: cell-based, human; conditions: 24 hrs exposure
Description: MIAPaCa-2 cells were treated with mahanine in dose responsive manner for 24 hrs. Afterward, different growth factors (VEGF, EGF and PDGF) were dissolved in medium at a final concentration of 20 ng/ml and added into the outer well of the 24-transwell plate (PromoCell Heidelberg, Germany) as per manufacturer instruction. Mahanine-pretreated cells (5×10^4 cells/well/500 μl) were added into the insert and incubated at in a humidified incubator (37° C., 5% CO2) for 6 hours and subsequently invaded cells were fixed with chilled methanol and stained with 0.1% crystal violet. Random fields were photographed and quantified under the phase contrast microscope.

[3] = tested on: ME180; experiment: MTT cell viability assay, ME180; format: cell-based; conditions: Homo sapiens, ME-180, ME180, 48 hr
Description: as §1, §2

[4] = tested on: K562; experiment: MTT cell viability assay, K562; format: cell-based, human; conditions: Homo sapiens; K562, 48 hrs
Description: as §1, §2

[5] = tested on: Hsp90-Cdc37 complex; experiment: Co-immunoprecipitation of Hsp90-Cdc37 complex; format: cell-based, human
Description: (§3) Different human cancer cells (1×10^6 cells) were incubated with complete medium alone or with different dose of Mahanine (10-20 μM) as indicated. Cells were detached using trypsin-EDTA solution. They were collected by centrifugation at 1500 g for 10 mins and lysed by sonication. Aliquots containing 60 μg total cellular protein were separated by 10% SDS-PAGE and transferred to nitrocellulose membrane (MILIPORE, Bedford, Mass., USA). Membrane was blocked with blocking buffer for 1 hour at room temperature and probed with desired primary antibody Hsp90, Hsp70, Hsp40, p23, HOP, Cdc37, B-Raf, Stat-3, Bcl-xl, Akt, PARP, β-actin (Cell signaling technology, USA) and caspase-3 (Santa Cruz, USA), caspase9, cytochrome c (cell signaling technology, USA) for overnight at 4° C. followed by HRP conjugated secondary antibody and detected by ECL. For the detection of association of the Hsp90-Cdc37, Hsp90-p23 and Hsp90-HOP, total cell lysate (400 μg) was treated with anti-Hsp-90 antibody (1:100 dilutions) and incubated overnight at 4° C. The chaperonic complex was resolved by SDS-PAGE (10%), transferred and probed separately with anti-Cdc37, anti-HOP, anti-p23 and anti-Hsp-90 antibodies. In the few immunoprecipitation experiments anti-Cdc37 used as precipitating antibody and Hsp90 was used as detection antibody. For the proteasomal inhibition assay cells were pretreated with 10 μM MG132 for 1 hr and then cells are exposed in 20 μM mahanine for 24 hrs. For proteasomal inhibition assay at 6 hrs incubation in MIAPaCa-2, cells were pre-incubated with 20 μM MG132 for 1 hr and then cells were exposed in 30 μM mahanine.

[6] = In vivo toxicity in mice
Description: Animals were examined for 1 month after the administration of acute toxic dose (150 mg/kg/day); there was no change in behavior, feeding habit, total body mass and in number of biochemical and haematological parameters.

[7] = tested on: AsPC1; experiment: MTT cell viability assay, AsPC1; format: cell-based, human; conditions: Homo sapiens; AsPC1, 48 hrs
Description: as §1, §2

[8] = tested on: Molt-3; experiment: MTT cell viability assay, Molt-3; format: cell-based, human; conditions: Homo sapiens; Molt-3, 48 hrs
Description: as §1, §2

[9] = tested on: glioma (T98G) and cervical (HeLa) cancer cells; experiment: Comparative cytotoxicity of mahanine and analogs by MTT; format: cell-based, human
Description: as §1, §2

[10] = tested on: SiHa; experiment: MTT cell viability assay, SiHa; format: cell-based; conditions: Homo sapiens, 48 hr
Description: as §1, §2

[11] = tested on: U87MGEGFRvIII; experiment: MTT cell viability assay, U87MGEGFRvIII; format: cell-based; conditions: Homo sapiens, 48 hrs treatment
Description: as §1, §2

[12] = tested on: cancer cell lines; experiment: MTT assay, pooled cancer cell lines of several cancer types; format: cell-based, human
Description: as §1, §2

[13] = tested on: U87MG; experiment: MTT cell viability assay, U87MG; format: cell-based, human; conditions: Homo sapiens, U-87 MG, 48 hrs
Description: as §1, §2

[14] = tested on: MIAPaCa-2; experiment: In vitro colony formation on matrigel; format: cell-based, human
[15] = tested on: Hsp90 client proteins (Akt); experiment: Western blot of Hsp90 client proteins; format: cell-based, human; conditions: cervical and pancreatic cancer cell lines, 24 hrs
Description: as §3, with “For the proteasomal inhibition assay cells were pretreated with 10 μM MG132 for 1 hr and then cells are exposed in 20 μM mahanine for 24 hrs. For proteasomal inhibition assay at 6 hrs incubation in MIAPaCa-2, cells were pre-incubated with 20 μM MG132 for 1 hr and then cells were exposed in 30 μM mahanine.” left out

[16] = tested on: REH; experiment: MTT cell viability assay, REH; format: cell-based, human; conditions: Homo sapiens, 48 hrs
Description: as §1, §2

With `CC(C)=CCCC1(C)C=Cc2c(c(C)cc3c2[nH]c2cc(O)ccc23)O1` (centres unmarked) [Mahanine, mahanine] the IC50 [1] was 16 ± 0.3 µM, the “EGF-driven MIAPaCa-2 migration, % of controls” value ([2]; ~0.6×IC50 (10 μM)) was 48.6 % of controls and the “EGF-driven MIAPaCa-2 migration” value ([2]; ~1×IC50, 15 μM) was “nearly complete inhibition”. The IC50 [3] was 14.6 µM, the IC50 [4] was 13 ± 1.1 µM and the “dose needed to initiate dissociation of Hsp90-Cdc37” value ([5]; HeLa, 24 hr) was 17.5 µM. For the same compound, the “dose adequate to begin Hsp90-Cdc37 dissociation” value ([5]; MIAPaCa2, 24 hr) was 12.5 µM, the “dose showing significant decrease of association of Hsp90-Cdc37 complex” value ([5]; U87MG, 24 hr) was 15 µM and the Creatinine ([6]; mouse, in vivo) was 3.72 mg/dL. For the same compound, the Hb ([6]; mouse, in vivo) was 13.64 gm/dl, the SGOT ([6]; mouse, in vivo) was 174.0 Unit/ml and the SGPT ([6]; mouse, in vivo) was 34.7 Unit/ml. It also gave a Urea ([6]; mouse, in vivo) of 48.6 mg/dL, a tolerated dose ([6]; normal Balb/c mice, consecutive 20 days) of 150 mg/kg/day and an IC50 [7] of 17.2 ± 0.7 µM. For the same compound, the IC50 [8] was 10.6 ± 0.3 µM, the “fold less IC50 of mahanine compared to mahanimbine” value [9] was 2-2.5 fold and the IC50 [10] was 14.5 µM. It also gave an IC50 [11] of ~14 µM, an IC50 ([12]; Homo sapiens, Pancreatic cancer cell, 48 h, range, 48 hr treatment, read-out: IC50, glioma, cervical and pancreatic cancer cell lines) of 11 to 14 µM and an inhibition at 20 µM ([12]; Homo sapiens, mahanine at 20 μM, read-out: inhibition of cancer cells) of 75 to 85%. For the same compound, the IC50 ([12]; range over glioma and cervical cancer cell lines, 48 hr, listed as 1b, read-out: IC50, glioma and cervical cancer cells) was 30 to 50 µM, the IC50 ([12]; range over glioma and cervical cancer cell lines, 48 hr, read-out: IC50, glioma and cervical cancer cells) was 12 to 17 µM and the IC50 [13] was 13.4 ± 0.4 µM. The colony formation ([14]; 15 μM, within 24 hrs) was “absolutely inhibited”, the colony formation ([14]; 20 μM, after 72 hrs) was “could not colonize” and the inhibition at 10 µM ([14]; Homo sapiens, MIA PaCa-2, 10 μM, within 24 hrs) was ~20%. The “dose enough to start significant downregulation of Akt level” value [15] was 15 µM and the IC50 [16] was 11.6 ± 0.7 µM.

Source: patent US8637679B2, “Process for the isolation of organic compounds useful for the treatment of cancer” (Council of Scientific and Industrial Research, priority 2011, dated 2014)
